# Results: patent US20220241409A1, “WATER SOLUBLE ADJUVANT AND COMPOSITION CONTAINING SAME” (Sumitomo Dainippon Pharma Co., Ltd., priority 2019, published 2022)
# Key:
# Antigen-Specific CTL = experiment: Immune response of antigen-specific CTL for peptide and tumor cell, vaccine b (Test 12); type: in vivo, mouse
# Protocol: Vaccine b prepared like Test 8 was injected to a HLA-A*02:01 transgenic mouse intradermally at the tail base area in an amount for administering 300 μg of Compound of formula 4 per body and 225 μg of Peptide SEQ ID No. 3 per body. Or, in the step of preparing vaccine b, the compound prepared in Example 2 was added to the diluted peptide solution to prepare a vaccine, and the prepared vaccine was injected to a HLA-A*02:01 transgenic mouse intradermally at the tail base area in an amount for administering 300 μg of Compound of formula 4 per body, 225 μg of Peptide SEQ ID No. 3 per body, and 325 ng of the compound prepared in Example 2 per body. One week later, the mice were sacrificed with CO2 gas, and then spleens removed from the mice. A splenocyte suspension was prepared from the spleens with CTM. Like Test 6, Peptide (SEQ ID No. 1) was added to the splenocyte-containing ELISPOT plate, and the plate was incubated overnight at 37° C. under an atmosphere of 5% CO2 to re-stimulate the peptide in vitro. Then, after removal of the supernatant from the wells, stained spots on the ELISPOT plate were counted. […] The concentration of mouse IFN-γ in the culture supernatant was measured with an ELISA kit.
# [1] = tested on: MCA-A24/Kb-WT1 tumor cells; experiment: In vivo suppression of tumor growth by vaccine (Test 15); conditions: 27th day after transplantation, HLA-A*24:02 transgenic mouse, vaccination 7 days before and after transplantation; versus vehicle (group a); group b p<0.05, group c (100 ng Example 2 per body) p<0.01
# Protocol: The HLA-A*24:02 transgenic mouse (C57BL/6CrHLA-A24/Kb) used herein is a mouse expressing a chimeric HLA (HLA-A*2402/Kb) of a human MHC (HLA-A*24:02) and a mouse MHC (H-2Kb) (Int. J. Cancer 2002; 100: 565-570). The mouse can induce […] CTLs with a peptide which can bind to human HLA-A*24:02.
# A suspension of 3-methylcholanthrene in corn oil was administered to a HLA-A*24:02 transgenic mouse intradermally at the ventral region. From the tumor generated at the administration site, HLA-A*2402/Kb-expressing tumor cells were obtained. Cell lines established by stably expressing WT1 antigen peptide (SEQ ID No. 2) in the cells (herein, also referred to as MCA-A24/Kb-WT1 tumor cells) were suspended in Hanks' Balanced Salt Solution and intradermally transplanted to the ventral region of HLA-A*24:02 transgenic mouse (5×10^5 cells per mouse). The mice made to receive a vehicle (Group a), a vaccine (Group b), or a vaccine containing the compound prepared in Example 2 (Group c) were classified. Six mice per group were used. […] The tumor size was measured 27 days after the tumor transplantation and the tumor volume was calculated.
# [2] = tested on: mouse bone marrow-derived dendritic cell; experiment: Activation of mouse bone marrow-derived dendritic cell, cytokine/chemokine production (Test 4); type: cell-based; conditions: 200 nmol/L, one day, compared with only DMSO
# Protocol: Myeloid cells were collected from the femur and tibia of HLA-A*02:01 transgenic mouse (C57BL/6CrHLA-A2.1DR1), and then suspended in RPMI 1640 medium with 10% fetal bovine serum (FBS) and 10 ng/mL of GM-CSF. The dendritic cells in the myeloid cells were incubated at 37° C. under an atmosphere of 5% CO2 for induction of differentiation. Seven days after the incubation, the cells were collected. After observing the expression of CD11c on the cell surface by flow cytometry, the cells were cryopreserved. Cryopreserved mouse bone marrow-derived dendritic cells were reconstituted, suspended in RPMI 1640 medium with 10% FBS, and seeded on a U-bottom 96 well plate at 5×10^5 cells/well. The compound prepared in Example 3 was added in the presence of 0.1% (v/v) DMSO to the wells at a final concentration of 200 nmol/L. The plate was incubated at 37° C. under an atmosphere of 5% CO2. One day after the incubation, the culture supernatant was collected. The concentration of cytokine and chemokine (IL-1p, IL-6, IL-12p40, IL-12p70, IP-10, MIP-1α, MIP-1β, Rantes, and TNFα) which were included in each culture supernatant was measured with Milliplex Mouse Cytokine/Chemokine Magnetic Bead Panel kit (Millipore) and Luminex system in accordance with the manufacturer's protocol. […]
Structure (SMILES),"CTLs specific to Peptide (SEQ ID No. 1) in splenocyte, relative to vaccine b without compound (Antigen-Specific CTL; IFN-γ ELISPOT, 325 ng per body in vaccine b, one week later) [times]","amount of IFN-γ produced from the CTL, relative to vaccine b without compound (Antigen-Specific CTL; about three days culture with LLC-HHD-WT1 tumor cells and Peptide SEQ ID No. 1, ELISA, average of 3 wells) [times]",growth of tumor cells (average tumor volume) [1],"yield of cytokine and chemokine (IL-1β, IL-6, IL-12p40, IL-12p70, IP-10, MIP-1α, MIP-1β, Rantes, TNFα) [2]"
"CCCCOc1nc(N)c2[nH]c(=O)n(Cc3ccc(CN(C)CCOCCOCCOCCOCCO)nc3)c2n1 [Example 2, 6-amino-2-butoxy-9-{[6-(16-hydroxy-2-methyl-5,8,11,14-tetraoxa-2-azahexadecan-1-yl)pyridin-3-yl]methyl}-7,9-dihydro-8H-purin-8-one-trifluoroacetate]",1.8,8.7,more potently suppressed,
"CCCCOc1nc(N)c2[nH]c(=O)n(Cc3ccc(CN(C)CCOCCOCCOCCOCCO)cc3)c2n1 [Example 3, 6-amino-2-butoxy-9-{[4-(16-hydroxy-2-methyl-5,8,11,14-tetraoxa-2-azahexadecan-1-yl)phenyl]methyl}-7,9-dihydro-8H-purin-8-one]",,,,higher
